| Compound | melting point |
| --- | --- |
| CCC(=O)Nc1cc(-c2c(-c3ccc(Cl)cc3)nc3cccnn23)ccn1 | 204 to 205 °C |
| Cc1ccc2nc([C@@H](C)NC(=O)OC(C)(C)C)sc2c1 | 101 to 104 °C |
| CN1CCN2c3ccc(Cl)cc3C(c3ccco3)=NCC2C1 (centres undefined) | > 240 °C |
| CCOC(=O)c1c(N2CCN(C)CC2)c2cc(F)ccc2n(Cc2ccccc2)c1=O | 156 °C |
| COc1c(C(=O)O)nc(N2CCCCS2(=O)=O)n(C)c1=O | 180 to 181 °C |
| CC(C)(C)c1nnc(S)n(N)c1=O | 209 to 212 °C |
| CNC(=O)c1ccc(NCC(=O)O)cc1 | 234 °C |
| CC(=O)OC1CSC(Oc2cnc(Cl)c(Cl)c2)C(OC(C)=O)C1OC(C)=O (centres undefined) | 128 °C |
| Cc1c(C(N)=O)nnn1Cc1c(F)cccc1F | 208 to 210 °C |
| O=C(Nc1ccc(F)cc1)N[C@H]1CCCN(C(=O)c2ccc(F)cc2)C1 | 228 to 231 °C |
| COC(=O)c1cncc(OC2SCC(OC(C)=O)C(OC(C)=O)C2OC(C)=O)c1 (centres undefined) | 50 °C |
| ClCCCOc1cccc2c(OCCCCl)cccc12 | 219 °C |
| Cn1nc(N)nc1NCCSCc1cccc(CN2CCCCC2)c1 | 92 to 93 °C |
| Cc1nc2cc3c(cc2c(=O)[nH]1)CCC3 | 284 °C |
| CN1CCC(NC(c2cccc([N+](=O)[O-])c2)c2nc3ccccc3[nH]2)CC1 (centres undefined) | 254 °C |
| CCCn1nc2c(N)nc3ccccc3c2c1NCc1ccccc1 | 160 to 161 °C |
| O=C(O)c1cc2cc3[nH]c(=O)oc3cc2[nH]1 | 288 to 290 °C |
| CCCCCCCNC(=O)Nc1ccccc1C(=O)N1CCN(c2ccccc2OC)CC1 | 209 to 212 °C |
| CC(C)(C)OC(=O)Nc1ccc(C(=O)O)cc1C(F)(F)F | 197 to 198 °C |
| COc1ccc(C(=O)c2ccccc2F)c(O)c1Cl | 132 to 133 °C |
| COc1nn(-c2ccc(C=O)c(Cl)c2)nc1Cl | 85 to 87 °C |
| O=C(c1cc2cc3[nH]c(=O)oc3cc2[nH]1)N1CCC(Cc2ccc(F)cc2)CC1 | 244 to 247 °C |
| CC[C@]12CC[C@@H]3c4ccc(O)cc4CC[C@H]3[C@@H]1C=CC2=O | 230 °C |
| CN1C(C(=O)Nc2cccc(Br)c2)=C(O)c2ccc3ccccc3c2S1(=O)=O | 268 to 269 °C |
| CCCc1cc(O)nc(SCC(N)=O)n1 | 200 to 203 °C |

| Compound | melting point |
| --- | --- |
| CN1CCN(c2ccc(C(=O)NC3(C(=O)NCC#N)CCCCC3)cc2)CC1 | 218 to 220 °C |
| C[C@@H](Nc1ncnc2[nH]c(-c3ccc(CCl)cc3)cc12)c1ccccc1 | > 320 °C |
| c1cc(-c2cnco2)nc(-c2cnco2)c1 | 190 to 191 °C |
| CN1CCOc2cccc3nc4c(c1c23)CCCC4 | 97 to 98 °C |
| CCNC(=N)NC(=O)Cc1cccc(OC)c1 | 108 to 110 °C |
| O=C(CS(=O)(=O)c1ccccc1)c1ccc(F)nc1 | 127 to 128 °C |
| CC(C)(CNC(=O)c1ccccc1-c1ccccc1C(=O)O)SN=O | 121 to 123 °C |
| CSc1ncncc1C1c2c(F)cccc2CC1(C)C (centres undefined) | 81 to 82 °C |
| COc1cc2[nH]c(N(C)Cc3cccc(C4=NCCN4C)c3)nc(=O)c2c(C)c1OC | 145 to 148 °C |
| CCCCc1nc2cc[nH]c(=O)c2n1Cc1ccc(-c2ccccc2-c2nnn[nH]2)cc1 | 167 °C |
| O=C1c2ccccc2C(=O)N1CCCOC(Cl)Cl | 101 to 103 °C |
| O=[N+]([O-])c1cccc2[nH]c3c(c12)CCCCCC3 | 189 to 191 °C |
| CC(=O)Nn1c(=S)[nH]c2cc(C(F)(F)F)ccc21 | 294 to 295 °C |
| COc1cccc(Oc2nccc(-c3c(-c4ccc(F)cc4)ncn3C3CCNCC3)n2)c1 | 117 to 118 °C |
| CCOC(=O)Nc1cccc(N2CCN(CCC3CCN(CC(C)=O)CC3)CC2)c1 | 118 °C |
| Nc1nc2ccc(CO)cc2o1 | 148 to 150 °C |
| Cc1c[nH]c2c([N+](=O)[O-])ccc(Cl)c2c1=O | > 250 °C |
| CN(Cc1cc2c(=O)c(C(=O)NCc3ccc(Cl)cc3)cn(C)c2o1)CC(O)c1cccs1 (centres undefined) | 145 to 147 °C |
| Cc1cccc(-c2[nH]c(C(C)C)nc2-c2ccc(F)c(-c3ccc(C)[nH]3)c2)n1 | 118 to 121 °C |
| Cc1noc(-c2ccc(Cl)cc2)c1-c1ccc(S(N)(=O)=O)cc1 | 194 to 197 °C |
| CCOC(=O)C1=C(CS(=O)c2ccccc2)Nc2ccnc(OC(C)C)c2C1c1ccccc1C(F)(F)F (centres undefined) | 206 to 208 °C |
| OCc1cccc2cc(-c3ccccc3)oc12 | 118 °C |
| CC(C)(C)C(NC(=O)c1ccc(Cl)cc1)Nc1c(Nc2cccnc2)c(=O)c1=O (centres undefined) | 257 to 258 °C |
| O=c1[nH]c(=O)n(C2CC(F)C(CO)O2)cc1CO (centres undefined) | 184 °C |
| O=C(O)c1cccc(CN2CCC(c3cn(Cc4ccoc4)c4ncccc34)CC2)c1 | 177 to 179 °C |

| Compound | melting point |
| --- | --- |
| Cc1[nH]c2cc3c(cc2c1-c1ccccc1)C(C)(C)C=N3 | 233 to 235 °C |
| CS(=O)(=O)NC(=O)NCCCCC1CCSS1 (centres undefined) | 125 to 127 °C |
| Cc1cccc(C(=O)Nc2c[nH]nc2C(=O)NCCOC(C)C)n1 | 150 to 151 °C |
| O=C(Nc1nccs1)c1nc(-c2cccc3ccccc23)[nH]c1-c1ccccc1 | > 250 °C |
| CCOCCOCCOc1ccc(C(=O)CN(Cc2ccccc2)Cc2ccccc2)cc1C(N)=O | 91.5 to 92.5 °C |
| C[C@H](NC(=O)CCC(=O)NO)C(=O)N1CCC[C@H]1C(=O)O | 195 to 196 °C |
| CC[C@H](C)[C@H](NS(=O)(=O)c1ccc(C)cc1)C(=O)N[C@H](CO)Cc1c[nH]c2ccccc12 | 217 to 219 °C |
| CCCCCCCCCCCCCCCCCCOC(C)c1ccc(-c2ccc(C(=O)O)cc2)cc1 (single isomer, unassigned; (+)) | 145 to 146 °C |
| CC(C)CC(C)(C(=O)NC1CCCCCCCCCCNC1=O)c1cccc(Cl)c1S (centres undefined) | 143 to 148 °C |
| CCCCCCCCCCc1cccc(C(=O)N(O)CCCC(=O)O)c1 | 77 to 79 °C |
| O=[N+]([O-])c1ccc(-c2ccc(CCl)o2)cc1 | 97 to 99 °C |
| Cn1ncc2ccccc2c1=O | 111 to 112 °C |
| COc1ccc2ccc(N3C(=O)c4ccccc4C3OCc3cccnc3)nc2n1 (centres undefined) | 175 °C |
| COc1ccc(C2SC(=O)NC2C(=O)NCCO[N+](=O)[O-])cc1 (centres undefined) | 142 to 143 °C |
| CCC(O)CCCOc1ccccc1Oc1ccccc1OCCCC(O)CC (centres undefined) | 119 °C |
| CCCCc1nc2cc(C(=O)O)cc(C(=O)O)c2n1Cc1ccccc1Cl | 299 to 301 °C |
| Cc1nn(-c2c(Cl)cc(C(F)(F)F)cc2Cl)nc1C(=O)Nc1ccccc1 | 185 to 186 °C |
| O=C(O)C1=Cc2ccc3ccccc3c2OC1C(F)(F)F (centres undefined) | 246 to 249 °C |
| CN(C1CCN(Cc2ccccn2)CC1)S(=O)(=O)c1ccc(Nc2nccc(Nc3ccc(F)cc3)n2)cc1 | 202 to 204 °C |
| COc1cc2c(cc1-c1cnccn1)-c1c(-c3cncs3)c3c(n1CC2)C(=O)N(C(C)(C)C)CCCOC3 | 235 to 236 °C |
| CCCCn1c(=O)c2[nH]c(N3CCCCC3)nc2n(CCCC)c1=O | 221 °C |
| CCOC(=O)CS(=O)CCCCl (centres undefined) | 46 to 47 °C |
| Clc1ccnc2[nH]c(CCc3ccccc3)cc12 | 159 to 160 °C |
| Nc1cc2c(cc1Sc1ccccc1)CCC2 | 67 °C |

Reference: a melting point compilation (Tetko et al.; mined from patent text by program, amines drawn as free bases though some values may be those of a salt)
